Results on one compound are retold here after paper PMC12523303, “Multi-Fused S,N-Heterocyclic Compounds for Targeting α-Synuclein Aggregates” (Cells, 2025).

pKi: −log10 of the molar value. Like-named read-outs stand apart in the source and are kept apart here.

The target in data set [1] is T1, α-synuclein (α-syn) aggregates in PD brain homogenates (Homo sapiens, UniProt P37840).
T1 construct: Anterior cingulate cortex tissue from a Parkinson’s disease (PD) case; tissue Banner Sun Health Research Institute (Dr. Thomas Beach); host or cells: post-mortem human PD anterior cingulate cortex homogenate
The data set is described as follows: In vitro competition (Ki) assay vs [3H]asyn-44 in PD brain homogenates. Type of data set: binding. The note with it: 1 nM [3H]asyn-44. As for the experimental part:
Anterior cingulate cortex tissue from a Parkinson’s disease (PD) case was generously provided by Dr. Thomas Beach at the Banner Sun Health Research Institute in Arizona, USA. […] Preparation of the frozen blocks for binding assays followed previously established protocols.
The equilibrium inhibition constants (Ki) for the unlabelled compounds were measured against [^3H]asyn-44 using our previously reported procedure. For these assays, frozen aliquots of homogenized human brain tissue (stored at −80 °C) were used. Homogenates were prepared at 10 mg/mL in phosphate-buffered saline, then diluted with 50 mM Tris buffer (pH 7.0) to a working concentration of 1 mg/mL.
Unlabeled competitor compounds were initially dissolved in DMSO at 400 μM, then diluted with Tris buffer to 20 μM, resulting in a 5% DMSO concentration. A serial dilution series (ranging from 6 μM to 4 nM) was prepared in the same 5% DMSO/Tris buffer solution to maintain consistent solvent conditions throughout the assay.
To perform the binding assay, 50 μL of the appropriately diluted competitor solution was mixed with 50 μL of [^3H]asyn-44 (1 nM final concentration) and 800 μL of Tris buffer containing 20% ethanol and 0.1% bovine serum albumin (BSA). Then, 100 μL of the 1 mg/mL brain homogenate was added, bringing the final tissue concentration to 100 μg/mL. The reaction mixtures were incubated at room temperature for 60 min before filtration through Whatman GF/B glass fibre filters using a Brandel M-24R cell harvester (Gaithersburg, MD, USA). Filters were washed three times with 3 mL of Tris buffer containing 20% ethanol and 0.1% BSA.
After washing, retained radioactivity was measured using CytoScint-ES scintillation fluid following thorough vortexing. Specific binding was calculated by correcting for nonspecific binding (as described later), and the amount of bound radioligand was derived from the filter-associated radioactivity and the molar activity of the tritiated compound.

For data set [2], the target named is T1, α-synuclein (α-syn) aggregates in PD brain homogenates. The data set is described as follows: Two point screening assay (30 nM and 300 nM) vs [3H]asyn-44 in human PD brain homogenates. Type of data set: binding. The procedure:
Screening assays for the test compounds were performed at two concentrations—30 nM and 300 nM—using unlabelled competitors in human PD brain homogenates against [^3H]asyn-44 as previously described. […] Each assay was conducted in triplicate for both concentrations to ensure reproducibility and statistical reliability.

Data set [3] is described as follows: Metabolic stability in human liver microsomes. Type of data set: in vitro ADME. As for the experimental part: Metabolic stability assays were conducted using pooled human liver microsomes (HLMs) to evaluate the rate of in vitro metabolic degradation of the test compound. Incubations were carried out in duplicate (n = 2) at a final compound concentration of 1 μM. The protein concentration of the microsomal suspension was adjusted to 0.5 mg/mL using phosphate buffer (100 mM, pH 7.4). Reactions were initiated by the addition of NADPH (final concentration 1 mM) and incubated at 37 °C. Aliquots were taken at four time points: 0, 5, 15, and 30 min. Each reaction was quenched with ice-cold acetonitrile containing internal standard, followed by centrifugation to pellet proteins. Supernatants were analyzed using a validated LC-MS/MS method to determine the concentration of the parent compound at each time point. […] Metabolic stability was assessed by calculating the percentage of the parent compound remaining at each time point. The elimination rate constant (k), half-life (t1/2), and intrinsic clearance (CLint) were derived from the natural log-transformed concentration vs. time data, assuming first-order kinetics.
(In general: Liver microsomes are vesicles of endoplasmic reticulum, rich in cytochrome P450 enzymes.)

The next data set has as its target T2, MDR1 (Homo sapiens, UniProt P08183).
T2 construct: host or cells: MDCK cells
The data set is described as follows: Bidirectional transport in MDR1-transfected MDCK cell monolayers. Type of data set: in vitro ADME. The note with it: dog; for recovery at 2 μM: MDCK-MDR1, MDR1-MDCK permeability assay. The procedure:
(§1) MDR1-transfected MDCK cell monolayers, cultured for 5 days and obtained from the Netherlands Cancer Institute, were used for the in vitro bidirectional transport studies. Cells were maintained in Dulbecco’s Modified Eagle Medium (DMEM) supplemented with 10% fetal bovine serum (FBS) and 1% penicillin–streptomycin. They were subcultured every other day at a split ratio of 1:3 to 1:5. For transport experiments, cells were seeded onto polycarbonate Transwell® filter inserts (Millipore) in 24-well plates at a density of 500,000 cells per well. After 24 h, the medium was replaced, and the cells were cultured for an additional 4 days to allow tight junction formation before initiating the transport assays. Transport studies were performed in duplicate using a 2 μM concentration of test compound, in both apical-to-basolateral (A→B) and basolateral-to-apical (B→A) directions. The apparent permeability coefficient (P_app) was calculated using the following equation: Papp (cm/s) = (Vr/C0) (1/S) (dC/dt)
(§2) • P_app is the apparent permeability, • V_r is the volume of the receiver chamber, • C0 is the initial concentration in the donor chamber, • S is the surface area of the cell monolayer (0.7 cm^2; for a 24-well insert), • dC/dt is the rate of appearance of the compound in the receiver chamber.
(§3) The efflux ratio was calculated as: (1) Efflux ratio=Papp B−A/Papp A−B
(§4) Bioanalysis was carried out using LC-MS/MS.

The target of data set [4] is T3, MDR1-transfected MDCK cells (Homo sapiens, UniProt P08183).
T3 construct: host or cells: MDCK cells
T3 sequence (P08183 whole entry): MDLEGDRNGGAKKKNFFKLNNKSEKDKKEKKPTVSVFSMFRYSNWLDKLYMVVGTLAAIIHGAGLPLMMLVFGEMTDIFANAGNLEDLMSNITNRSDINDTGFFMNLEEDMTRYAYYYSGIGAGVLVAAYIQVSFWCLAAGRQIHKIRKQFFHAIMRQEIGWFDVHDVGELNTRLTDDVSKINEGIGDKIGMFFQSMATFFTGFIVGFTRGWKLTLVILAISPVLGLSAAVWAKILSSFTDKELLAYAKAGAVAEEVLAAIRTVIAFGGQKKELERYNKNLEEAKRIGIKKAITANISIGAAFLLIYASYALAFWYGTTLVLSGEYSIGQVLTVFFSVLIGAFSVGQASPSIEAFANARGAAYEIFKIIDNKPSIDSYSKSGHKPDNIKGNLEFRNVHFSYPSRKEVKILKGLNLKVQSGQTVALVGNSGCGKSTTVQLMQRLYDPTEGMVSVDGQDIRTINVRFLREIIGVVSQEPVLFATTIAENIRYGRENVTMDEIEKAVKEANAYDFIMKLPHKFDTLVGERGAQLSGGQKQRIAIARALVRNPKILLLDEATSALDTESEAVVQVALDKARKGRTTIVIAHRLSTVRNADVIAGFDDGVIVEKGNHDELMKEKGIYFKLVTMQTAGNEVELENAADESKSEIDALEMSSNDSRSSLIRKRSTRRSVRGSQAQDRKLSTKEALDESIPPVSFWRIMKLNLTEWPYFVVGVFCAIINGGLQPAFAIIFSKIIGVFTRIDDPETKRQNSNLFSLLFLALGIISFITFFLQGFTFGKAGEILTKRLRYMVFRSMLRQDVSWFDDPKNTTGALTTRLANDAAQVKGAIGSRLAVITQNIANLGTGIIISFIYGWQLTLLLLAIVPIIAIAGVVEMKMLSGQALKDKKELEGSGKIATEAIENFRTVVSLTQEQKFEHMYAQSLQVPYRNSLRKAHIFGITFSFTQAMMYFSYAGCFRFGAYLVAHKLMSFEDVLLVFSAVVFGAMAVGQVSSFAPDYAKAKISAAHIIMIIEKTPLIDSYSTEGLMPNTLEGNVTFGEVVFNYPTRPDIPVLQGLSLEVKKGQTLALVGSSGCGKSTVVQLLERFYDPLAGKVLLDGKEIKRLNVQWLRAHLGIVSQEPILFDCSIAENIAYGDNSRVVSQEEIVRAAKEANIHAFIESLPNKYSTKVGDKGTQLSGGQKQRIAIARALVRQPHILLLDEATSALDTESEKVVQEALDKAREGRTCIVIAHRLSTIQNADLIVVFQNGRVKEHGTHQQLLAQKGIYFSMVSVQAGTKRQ
The description is as above. In kind it is in vitro ADME. The note with it: MDR1-MDCK. As for the experimental part: as §1, §2, §3, §4

Data set [5] deals with T4, [^3H]PiB binding in post-mortem Alzheimer’s disease (AD) brain tissue (Homo sapiens, UniProt P05067).
T4 construct: from tissue; host or cells: post-mortem AD brain tissue
T4 sequence (P05067 672-713 limits assumed): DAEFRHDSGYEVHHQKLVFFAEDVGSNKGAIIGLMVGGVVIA
The data set is described as follows: Competition binding vs [3H]PiB in post-mortem AD brain tissue. The source says:
(§5) We assessed the binding affinity of LMD-022 using a radioligand competition binding assay in post-mortem PD brain tissues. […] To evaluate potential off-target binding in AD brain tissues, we conducted additional binding assays using a panel of AD-related radioligands, including [^3H]PiB, [^3H]MK-6240, [^3H]Z-2340, and [^3H]PI-2620. […] Our future work will aim to optimize chemical yields of lead compounds, including LMD-022, and carry out α-syn fibril seed amplification assays or immunohistochemical co-localization with pathologic α-syn to verify target engagement as well as radiolabel lead molecules for in vivo PET imaging studies.

The target in data set [6] is [^3H]MK-6240 binding in post-mortem Alzheimer’s disease (AD) brain tissue (Homo sapiens, UniProt P10636). The data set is described as follows: Competition binding vs [3H]MK-6240 in post-mortem AD brain tissue.
Sequence of [^3H]MK-6240 binding in post-mortem Alzheimer’s disease (AD) brain tissue (P10636 623-758 limits assumed): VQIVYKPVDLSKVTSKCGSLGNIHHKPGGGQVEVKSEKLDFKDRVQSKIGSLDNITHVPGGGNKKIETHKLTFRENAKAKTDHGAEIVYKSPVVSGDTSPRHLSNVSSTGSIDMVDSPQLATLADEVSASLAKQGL
Text: as §5

Data set [7] deals with [^3H]Z-2340 binding in post-mortem Alzheimer’s disease (AD) brain tissue. The data set is described as follows: Competition binding vs [3H]Z-2340 in post-mortem AD brain tissue. Also noted: species or system human.
Text: as §5

Data set [8] has as its target [^3H]PI-2620 binding in post-mortem Alzheimer’s disease (AD) brain tissue (Homo sapiens, UniProt P10636). The data set is described as follows: Competition binding vs [3H]PI-2620 in post-mortem AD brain tissue.
Text: as §5

T2 sequence (P08183 whole entry): as the sequence (P08183 whole entry) above
Sequence of [^3H]PI-2620 binding in post-mortem Alzheimer’s disease (AD) brain tissue (P10636 623-695 limits assumed): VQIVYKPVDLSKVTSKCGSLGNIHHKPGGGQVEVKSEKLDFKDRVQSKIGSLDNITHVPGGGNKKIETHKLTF

With `O=C1NCc2nc(-c3cnc(N4CC[C@@H](F)C4)cn3)ccc21` [LMD-022], the pKi (as a rule, −log10 of the Ki, conventionally taken in molar units) in data set [1] is 7.80; in data set [5] it was below 5.00; in data set [6], below 5.00; in data set [7], below 5.00; in data set [8], 5.56. In addition, in data set [2] (30 nM competitor), the remaining activity (commonly the signal under treatment as a percentage of the control signal) at 0.03 µM amounted to 40%. Further, in [2] (300 nM competitor), the remaining activity at 0.3 µM turned out to be 15%. In data set [3] (human liver microsomes (h-MR)), the t1/2 was determined as 1.26 h. Moreover, in [3] (human liver microsomes, 5 min), the “% disappearance at 5 minutes relative to time zero” value is 7.6%. For the same compound, the “% disappearance at 15 minutes relative to time zero” value in data set [3] (human liver microsomes, 15 min) came out at 17.8%. Further, the “% disappearance at 30 minutes relative to time zero” value in [3] (human liver microsomes, 30 min) turned out to be 24.6%. Moreover, in data set [3] (human liver microsomes, as per Cyprotex Website), the “Clearance Category” value is on record as “Moderate”. In addition, in [3] (human, pooled human liver microsomes, pH 7.4, human liver microsomes (h-MR)), the half-life (usually the time in which the quantity being followed falls by half) at 1 μM came to 1.25 h. Besides, the share remaining (commonly the share of the starting amount still present when the sample was taken) at 5 min, 1 μM in data set [3] (pooled human liver microsomes, pH 7.4, human liver microsomes, 1 μM, 5 min) was 92.4%. Further, the fraction remaining at 0.5 h, 1 μM in data set [3] (pooled human liver microsomes, pH 7.4, human liver microsomes, 1 μM, 30 min) turned out to be 75.4%. In addition, the recovery at 2 μM was 61.9% at MDR1 (A→B, read-out: Calculated recovery, A→B direction) and 120% on MDR1 (B→A, read-out: Calculated recovery, B→A direction). Also, the Papp A→B at 2 μM at MDR1 (MDCK-MDR1, apical-to-basolateral, 2 μM, read-out: A→B apparent permeability) is 40.6 ×10⁻⁶ cm/s. In addition, at MDR1 (MDCK-MDR1, basolateral-to-apical, 2 μM, read-out: B→A apparent permeability), the Papp B→A at 2 μM was found to be 37.6 ×10⁻⁶ cm/s. In addition, the efflux ratio at 2 μM at MDR1 (MDR1-MDCK, read-out: Efflux Ratio (B→A/A→B)) was found to be 0.93. Also, in [4], the “Efflux Category” value is on record as “Not a substrate”. In [4], the “Permeability Category” value is “High”.
